Source: publication PMC7342775 (European journal of medicinal chemistry, 2020)

How the values were obtained:
[1] = target: α1(S270I)β3γ2L receptors (Homo sapiens, UniProt P14867+P18507+P28472, S297I); experiment: Oocyte electrophysiology, enhancement of low-GABA currents, α1 S270I mutant; type: cell-based; settings: for enhancement of GABA currents compared to wild type: 5 μM etomidate, 8 μM R-mTFD-MPAB
[2] = target: T1, α1β3γ2L GABAARs (Homo sapiens, UniProt P14867+P18507+P28472); experiment: Inhibition of [3H]R-mTFD-MPAB photolabeling; type: binding
T1 sequence (P18507 40-475, one chain of several): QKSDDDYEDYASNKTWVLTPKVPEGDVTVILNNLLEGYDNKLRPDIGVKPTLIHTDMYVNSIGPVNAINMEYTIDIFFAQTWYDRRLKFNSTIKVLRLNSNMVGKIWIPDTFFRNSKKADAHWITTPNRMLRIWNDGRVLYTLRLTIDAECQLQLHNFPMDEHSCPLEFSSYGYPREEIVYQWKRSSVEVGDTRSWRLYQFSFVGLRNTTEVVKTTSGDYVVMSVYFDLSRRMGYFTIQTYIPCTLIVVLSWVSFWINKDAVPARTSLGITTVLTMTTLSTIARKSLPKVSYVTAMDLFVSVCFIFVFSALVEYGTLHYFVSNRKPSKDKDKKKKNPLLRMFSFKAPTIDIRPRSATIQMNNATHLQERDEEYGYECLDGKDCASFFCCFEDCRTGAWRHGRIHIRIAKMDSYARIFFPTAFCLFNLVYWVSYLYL

[3] = system: α1β3γ2 GABAAR; settings: cited from earlier work; for selectivity favoring the R-mTFD-MPAB sites / selectivity favoring the etomidate site: 4-substituted propofols
[4] = system: Xenopus laevis tadpoles; experiment: Loss of righting reflexes; type: in vivo
[5] = target: T1, α1β3γ2L GABAARs; experiment: Inhibition of [3H]azietomidate photolabeling; type: binding; settings: in the presence of 300 μM etomidate
[6] = target: T1, α1β3γ2L GABAARs; experiment: [3H]pTFD-di-iPr-BnOH photolabeling and its inhibition; type: binding; settings: with GABA; for inhibition of [3H]pTFD-di-iPr-BnOH photoincorporation into the β subunit: 300 μM etomidate, 30 μM allopregnanolone, fluorography
[7] = target: T1, α1β3γ2L GABAARs; experiment: Modulation of [3H]muscimol binding, native HEK cell membranes
[8] = target: T2, α1β3 GABAARs (Homo sapiens, UniProt P14867+P28472); experiment: Modulation of [3H]muscimol binding, α1β3 receptors
T2 sequence (P14867 28-456): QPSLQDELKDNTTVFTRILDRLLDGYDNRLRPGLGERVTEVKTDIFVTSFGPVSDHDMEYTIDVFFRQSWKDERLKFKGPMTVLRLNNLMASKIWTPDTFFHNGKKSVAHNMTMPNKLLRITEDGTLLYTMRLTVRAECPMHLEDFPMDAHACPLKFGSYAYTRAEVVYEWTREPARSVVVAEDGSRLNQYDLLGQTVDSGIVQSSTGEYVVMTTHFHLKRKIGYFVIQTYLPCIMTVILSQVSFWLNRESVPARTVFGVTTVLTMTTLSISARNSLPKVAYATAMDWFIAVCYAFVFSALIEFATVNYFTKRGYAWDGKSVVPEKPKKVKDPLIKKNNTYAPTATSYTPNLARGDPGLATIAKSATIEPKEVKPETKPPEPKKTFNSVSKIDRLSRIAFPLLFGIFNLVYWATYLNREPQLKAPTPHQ
T2 sequence (P28472 26-473): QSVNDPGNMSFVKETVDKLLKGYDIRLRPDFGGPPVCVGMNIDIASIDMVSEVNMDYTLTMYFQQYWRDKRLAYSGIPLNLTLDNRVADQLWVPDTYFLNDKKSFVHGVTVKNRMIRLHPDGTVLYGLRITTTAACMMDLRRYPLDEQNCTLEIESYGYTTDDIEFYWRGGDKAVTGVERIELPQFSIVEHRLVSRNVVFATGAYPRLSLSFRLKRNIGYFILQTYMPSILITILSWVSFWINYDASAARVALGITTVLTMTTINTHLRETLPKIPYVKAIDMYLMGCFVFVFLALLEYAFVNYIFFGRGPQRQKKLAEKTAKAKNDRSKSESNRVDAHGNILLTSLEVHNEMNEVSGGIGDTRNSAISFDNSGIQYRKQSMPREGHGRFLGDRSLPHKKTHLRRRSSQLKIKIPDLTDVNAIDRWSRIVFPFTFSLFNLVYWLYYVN

[9] = target: T1, α1β3γ2L GABAARs; experiment: Two-microelectrode voltage-clamp electrophysiology in Xenopus oocytes, wild type
[10] = system: α1β3γ2 GABAAR; experiment: Selectivity between etomidate and R-mTFD-MPAB sites; type: binding, human

α1(S270I)β3γ2L receptors, sequence (P14867 28-456 S297I, one chain of several): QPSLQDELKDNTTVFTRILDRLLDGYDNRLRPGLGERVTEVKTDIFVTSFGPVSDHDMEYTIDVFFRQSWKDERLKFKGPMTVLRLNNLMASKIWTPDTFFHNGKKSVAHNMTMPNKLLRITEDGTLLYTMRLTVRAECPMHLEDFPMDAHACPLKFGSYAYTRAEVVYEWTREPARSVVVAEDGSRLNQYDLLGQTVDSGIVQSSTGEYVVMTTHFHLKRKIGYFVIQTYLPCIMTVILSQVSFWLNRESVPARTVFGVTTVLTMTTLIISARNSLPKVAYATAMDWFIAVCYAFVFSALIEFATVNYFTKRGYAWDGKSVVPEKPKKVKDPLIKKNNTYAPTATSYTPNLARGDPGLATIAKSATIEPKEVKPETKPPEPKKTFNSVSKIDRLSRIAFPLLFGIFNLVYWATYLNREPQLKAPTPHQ
α1(S270I)β3γ2L receptors, sequence (P18507 40-475, one chain of several): as the sequence (P18507 40-475, one chain of several) above

SMILES: C=CCC1(c2cccc(C3(C(F)(F)F)N=N3)c2)C(=O)NC(=O)N(C)C1=O (centres unmarked) [R–mTFD-MPAB, (5-allyl-1-methyl-5-(3-(3-(trifluoromethyl)-3H-diazirin-3-yl)phenyl)pyrimidine-2,4,6(1H,3H,5H)-trione)]
- enhancement of GABA currents compared to wild type [1]: significantly reduced
- non-specific [3H]R-mTFD-MPAB photolabeling (Bns) ([2]; in the presence of 60 μM R-mTFD-MPAB): 13 ± 4%

SMILES: CC(=O)c1cc(C(C)C)c(O)c(C(C)C)c1 [Me–CO–]
- selectivity favoring the R-mTFD-MPAB sites [3]: 1.5 fold

SMILES: CC(C)c1cc(C2(C(F)(F)F)N=N2)cc(C(C)C)c1CO [pTFD-di-iPr-BnOH, (2,6-diisopropyl-4-(3-(trifluoromethyl)-3H-diazirin-3-yl)phenyl)methanol]
- fraction of tadpoles that did not recover from anesthesia ([4]; at 2 μM): 4/7
- fraction of tadpoles that did not recover from anesthesia ([4]; at 3 μM): 6/9
- fraction of tadpoles that did not recover from anesthesia ([4]; at 10 μM): 7/10
- increase in LoRR potency ([4]; relative to Di-iPr-BnOH): 6 fold
- reduction of enhancement compared to wild type ([1]; 10 μM pTFD-di-iPr-BnOH): more than 50%
- IC50 [2]: 73 ± 10 µM

SMILES: CC(C)c1cc(C(C)(C)C)cc(C(C)C)c1O [t-Bu–]
- selectivity favoring the R-mTFD-MPAB sites [3]: 8 fold

SMILES: CCOC(=O)c1cncn1[C@H](C)c1ccccc1 [etomidate]
- non-specific [3H]azietomidate photolabeling (Bns) [5]: 13 ± 3%
- enhancement of GABA currents compared to wild type [1]: comparable to that in wild-type
- inhibition of [3H]pTFD-di-iPr-BnOH photoincorporation into the β subunit [6]: little inhibition of photolabeling

SMILES: OCc1ccccc1 [BnOH, benzyl alcohol]
- LoRR at lower concentrations than modulation of [3H]muscimol binding ([7]; tadpole LoRR vs HEK cell membranes): ~20 times
- modulation of [3H]muscimol binding ([7]; up to 50 mM): no modulation

SMILES: CC(C)c1cc(Cl)cc(C(C)C)c1O [4-Cl-propofol]
- selectivity favoring the etomidate site [3]: 4 fold

SMILES: CC(=O)[C@H]1CC[C@H]2[C@@H]3CC[C@H]4C[C@H](O)CC[C@]4(C)[C@H]3CC[C@]12C [allopregnanolone]
- inhibition of [3H]pTFD-di-iPr-BnOH photoincorporation into the β subunit [6]: little inhibition of photolabeling

SMILES: CC(C)c1cccc(C(C)C)c1O [Propofol]
- EC50 [8]: 7 ± 1.7 µM
- selectivity favoring the etomidate site [3]: 5.5 fold
- extent of inhibition of [3H]pTFD-di-iPr-BnOH photolabeling ([6]; 300 μM, β subunit): to the same extent as the background labeling

SMILES: CC(C)c1cc(C(O)c2ccccc2)cc(C(C)C)c1O (centres unmarked) [Ph–C(OH)–]
- selectivity favoring the R-mTFD-MPAB sites [3]: 5.3 fold

SMILES: CC(C)c1cc(C(=O)c2ccccc2)cc(C(C)C)c1O [4-benzoylpropofol]
- high affinity R-mTFD-MPAB site favored over the etomidate site [3]: 200 fold
- low affinity R-mTFD-MPAB site favored over the etomidate sites [3]: 3 fold

SMILES: NCCCC(=O)O [GABA, γ-aminobutyric acid]
- elicited currents ([9]; 1 mM GABA): 3.2 ± 1.5 μA
- Hill coefficient nH of GABA concentration-response curve ([9]; GABA alone): 1.0 ± 0.1

SMILES: CC(C)c1cccc(C(C)C)c1CO [Di-iPr-BnOH, (2,6-diisopropylphenyl)methanol]
- selectivity favoring the etomidate site over R-mTFD-MPAB site [10]: 2–3 fold
